# Test results: patent US12528777B2, “Quinazolinones derivatives for treatment of non-alcoholic fatty liver disease, preparation and use thereof” (Council of Scientific and Industrial Research, priority 2020, dated 2026)
# Entries after “also recorded” stand apart in the source; their conditions may differ.
# Experiments:
# Type in all cases: cell-based
# ATGL [1] = test: Western blot of ATGL level in HepG2 cells; set-up: key to Increase in ATGL level: + = slight or in insignificant; ++ = Moderate; +++ and ++++ = active; +++ and ++++ = active; +++++ = very active; conditions: HepG2 cells, western blot, score
# Procedure, shortened: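 HepG2 cells were treated with compound 24 h (10 μM screen; 50 nM–5 μM dose series) and lysed. 30 μg protein was western blotted for ATGL, with actin as loading reference. ATGL increase was expressed as percent of the 1.6-fold siCOP1 maximum and plotted against log concentration for EC50.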
# ATGL [2] = test: Immunoprecipitation assay of ATGL ubiquitination in myc-ATGL HepG2 cells; conditions: 5 μM, 24 hours, MG-132, poly ubiquitin smear
# Procedure: To this end, an immunoprecipitation assay was performed wherein HepG2 cells overexpressing myc-ATGL were transfected with HA-Ubiquitin and treated with 5 μM of the compounds 9, 10, 107, 215, 219 and 238. MG-132, a proteasomal inhibitor, was added 4 hours before harvesting the cells. Immune complexes were pulled down with anti-myc antibody and immunoblot was done using anti-HA antibody. The resultant smears on the blot reflect the ubiquitination status of ATGL.
# For checking the change in the ubiquitination status of ATGL on compound treatment, Myc-ATGL expressing HepG2 cells (ATGL overexpressing cell line) was transfected with 2 μg of a plasmid harboring the HA tagged ubiquitin gene using Lipofectamine 2000 reagent (Invitrogen) in OptiMEM media (HiMedia). Fresh DMEM complete media was added after 8-10 hours of transfection. After roughly 24 hours of transfection, 5 μM of the compounds 9, 10 and 107 was added and cells were harvested post 24 hours of treatment. 4 hours prior to cell harvesting, 10 μM of proteasomal inhibitor MG132 (Calbiochem, Merck Millipore) was added to the cells. Proteins were isolated from the cells and protein concentration was estimated as described previously. 30 μl of PureProteome Protein A/G Mix Magnetic Beads (Merck Millipore) was taken in a 1.5 ml microcentrifuge tube, placed in a Magna Rack (Merck Millipore) and allowed to adhere to the side of the tube. 200 μg of protein was used for immunoprecipitation reaction in a reaction volume of 1 ml. 2 μl of anti-Myc primary antibody (Cell Signaling Technology) was added and the tube was incubated overnight at 4° C. in a rotary shaker. The next day, the tube was placed back in the Magna Rack and the beads were allowed to attach to the tube. To remove non-specific and unattached reactants, 1×PBS and 0.1% Triton-X was used for washing. 2× loading dye and Lysis Buffer was added and heated at 95° C. for 10 minutes to allow the immune complex to dislodge from the magnetic beads. Western Blot was performed subsequently as described before with anti-HA primary antibody for immunoblotting (Cell Signaling Technology). The activity trends of the synthesized compounds are disclosed in Table-5.
# ATGL [3] = test: Reversal of ATGL decrease in COP1 overexpressing HepG2 cells; conditions: myc-DDK-COP1, 5 μM, 24 hours
# Procedure: COP1 is an E3 ubiquitin ligase with ATGL as one of its targets for ubiquitination and subsequent proteasomal degradation by 26S proteasome. Therefore, it is only legit for ATGL levels to decrease upon COP1 overexpression. To this end, HepG2 cells were transfected with 500 ng of myc-DDK-COP1 plasmid using Lipofectamine 2000 and treated with 5 μM of the compounds 9 and 10 for 24 hours. 48 hours post transfection, cells were harvested and western blot was carried out.
# HepG2 cells = test: Confocal microscopy: lipid droplets in oleate induced HepG2 cells; set-up: key to Reduction in Lipid Droplets: + = slight or in insignificant; ++ = Moderate; +++ and ++++ = active; +++ and ++++ = active; +++++ = very active
# Procedure, shortened: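 HepG2 cells were loaded with 250 μM oleate and given compound in DMSO (10 μM screen; 10 nM–5 μM dose series) for 24 h; BSA as negative control. Lipid droplets stained with BODIPY/Hoechst, imaged confocally; mean droplets per cell counted over ~20 cells versus oleate-only cells.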
# COP1 = COP1 (Homo sapiens, UniProt Q8NHY2); test: Immunoprecipitation assay of COP1 autoubiquitination in HepG2 cells; conditions: 5 μM, 24 hours, MG-132
# Procedure: COP1 is capable of auto ubiquitinating its own self and getting degraded via the proteasomal pathway. To probe into this, HepG2 cells were co-transfected with HA tagged Ubiquitin and myc-flag tagged COP1. The transfected cells were treated with 5 μM of compounds 9, 10, 107 and 238 for 24 hours. MG-132, a proteasomal inhibitor, was added 4 hours before harvesting the cells. Immune complexes were pulled down with anti-myc antibody and immunoblot was done using anti-HA antibody. […] Thus, the compounds of the present disclosure could be potent therapeutic targets by being able to block the proteasomal degradation of ATGL which would then be able to carry out its lipolytic action and reverse the symptoms of steatosis.
# For checking the autoubiquitination status of COP1, HepG2 cells were cotransfected with 2 μg each of Myc-DDK-COP1 and HA-Ub plasmids using Lipofectamine 2000 reagent (Invitrogen) in OptiMEM media (HiMedia). The rest of the procedure is similar to that done for Myc-ATGL.
# Sequence of COP1 (Q8NHY2 whole entry): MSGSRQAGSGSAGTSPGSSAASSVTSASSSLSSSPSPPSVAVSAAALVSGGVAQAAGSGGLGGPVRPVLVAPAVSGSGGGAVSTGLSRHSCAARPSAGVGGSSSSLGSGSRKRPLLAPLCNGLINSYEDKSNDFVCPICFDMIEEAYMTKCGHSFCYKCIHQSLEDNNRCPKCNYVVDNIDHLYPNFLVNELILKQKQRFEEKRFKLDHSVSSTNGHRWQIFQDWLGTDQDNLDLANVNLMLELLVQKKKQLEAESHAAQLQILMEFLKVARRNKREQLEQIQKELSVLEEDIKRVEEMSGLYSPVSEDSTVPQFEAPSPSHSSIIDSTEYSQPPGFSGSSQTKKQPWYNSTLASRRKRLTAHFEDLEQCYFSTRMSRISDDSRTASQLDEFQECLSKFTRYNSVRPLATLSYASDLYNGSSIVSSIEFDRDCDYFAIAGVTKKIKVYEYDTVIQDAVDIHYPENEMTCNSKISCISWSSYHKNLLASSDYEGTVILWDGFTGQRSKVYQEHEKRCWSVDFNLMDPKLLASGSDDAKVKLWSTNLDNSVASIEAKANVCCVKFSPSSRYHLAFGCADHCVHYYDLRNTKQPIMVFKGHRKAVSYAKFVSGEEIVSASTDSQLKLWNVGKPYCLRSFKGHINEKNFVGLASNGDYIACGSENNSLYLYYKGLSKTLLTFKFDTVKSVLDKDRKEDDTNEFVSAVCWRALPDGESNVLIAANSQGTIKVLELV
structure (smiles),measurement,setting,value
"COCCn1cnc2ccc(NC(=O)Nc3ccc(C(C)=O)cc3)cc2c1=O [Compound 10, 1-(4-acetylphenyl)-3-(3-(2-methoxyethyl)-4-oxo-3,4-dihydroquinazolin-6-yl)urea]",Increase in ATGL level,ATGL [1],++++
same,ATGL ubiquitination in HepG2 cells,ATGL [2],"reduction, however, could not be seen"
same,Restoration of ATGL level upon COP1 overexpression,ATGL [3],could restore the reduced ATGL level; also recorded: could restore ATGL to its normal level
same,Number of lipid droplets,"HepG2 cells; HepG2 cells, 250 μM oleate induction",decrease in the number of lipid droplets
same,Reduction in Lipid Droplets,"HepG2 cells; oleate induced HepG2 cells, score",++++
same,COP1 autoubiquitination in HepG2 cells,COP1,markedly reduce COP1's auto ubiquitination property
